Among the data in patent US20260356835A1, “BICYCLIC HETEROARYL COMPOUNDS” (QuantX Biosciences US, Inc., priority 2023, published 2026) are IC50 values, retold here.

For one assay, the system named is Kuramochi cells. Put plainly: Cellular Viability Assay (5 day Kuramochi cell viability, CellTiter-Glo). It is filed as cell-based. Particulars: 5 days, 37 °C, growth inhibition relative to Day 0 (T0) and DMSO. As for the experimental part: Kuramochi cells were seeded at a density of 1000 cells per well in a 384-well, white, sterile, clear bottom plate, using a Multidrop liquid dispenser and incubated for 24 hours at 37 °C in a 5% CO2 humidified environment. 24 hours later, compounds were added starting at a top dose of 10 μM for a 9-point dose response curve at a 1:3 dilution using an iDOT HT liquid handler and incubated for 5 days at 37 °C in a 5% CO2 humidified environment. After 5 days and at Day 0, plates were incubated at room temperature for 30 minutes followed by the addition of 30 μl of CellTiter-Glo Reagent. Plates were then mixed for 10 minutes on an orbital shaker followed by incubation at room temperature for 20 minutes. Luminescence was then read using the Envision plate reader. Percent Growth Inhibition was then calculated using the following equation: Percent Growth Inhibition normalized=100−(compound signal−T0)/(max signal−T0)*100%, where Max Signal refers to the DMSO only treated cells and T0 refers to the Day0 viability measurement. Growth Inhibition 50 was then calculated using the following equation: Y=Bottom+(Top−Bottom)/(1+10^((Log IC50−X)*hillslope)).
For cell activity, bracket is denoted as: A<1 uM; 1 uM<B<5 uM; C>5 uM.
On the technique in general: In ATP-based viability assays light output follows the ATP content of the culture.

The target in assay [1] is T1, N-his8-TEV-hPARG (389-976) (Homo sapiens, UniProt Q86W56).
T1 construct: N-his8-TEV-hPARG (389-976); His8 (N); TEV protease cleavage site (N); made in house; host or cells: E. coli BL21(DE3)
Put plainly: PARG Biochemical Enzymatic Assay (PARG inhibition HTRF assay). Particulars: 62.5 pM PARG, 5 nM Biotin-Parylated PARP1 substrate, 60 minutes preincubation, 10 minutes reaction at 23 °C. As for the experimental part:
PARG Biochemical Enzymatic Assay
TEV-His8-PolyADP-Ribose Polymerase 1 (379-1014) (PARP1) and N-his8-TEV-hPARG (389-976) were used to transform BL21(DE3) competent cells followed by growth for 1 hour at 37 °C and plating on Kanamycin resistant agar plates. A single colony was then inoculated into 1 ml of Luria Broth and expansion into a 1 liter scale for growth at 37 °C for 3 hours. Expression was induced via 0.2 mM IPTG induction for 20 hours at 16 °C in BL21(DE3) E. coli. Purification was then performed using a Nickel column, size exclusion chromatography and HPLC analysis.
For substrate preparation, […] nicked DNA and 2 μM PARP1 protein were mixed for 10 minutes at 25 °C 10 μM biotin-NAD+ and 100 μM NAD+ were then added and incubated for 60 minutes at 30 °C to yield PARylated PARP1 substrate.
For compound screening, compounds were serially diluted to a 3× final concentration in assay buffer (Tris pH7.5 50 mM, KCl 50 mM, Tween-20 0.01%, BSA 0.1 mg/ml, EDTA 3 mM, EGTA 0.4 mM, DTT 1 mM) containing 1% DMSO. A top concentration of 1.5 μM for a 10-point dose response curve using a 1:3 dilution curve was used. 2.5×PARG (156.25 pM working concentration, 62.5 pM final concentration) was prepared in assay buffer and 4 ul added to a 384 well assay plate containing 2 μl of serially diluted compound. The plate was then centrifuged for 10 seconds and incubated for 60 minutes at 23 °C. 4 μl of 2.5× Biotin-Parylated PARP1 (12.5 nM working concentration, 5 nM final concentration) was then added to the plate and incubated for 10 minutes at 23 °C. 4 μl of […] Detection reagent containing 0.44 μg/ml of Streptavidin-Europium cryptate and 4 μg/ml of anti-6His-XL665 monoclonal antibody was added to the plate and incubated for 60 minutes at 23 °C. The Homogeneous Time Resolved Fluorescent (HTRF) signal was then measured on an Envision plate reader using and excitation wavelength of 337 nm and emission wavelengths of 615 nm and 665 nm. Normalized percent inhibition was then calculated using the following equation: % Inhibition normalized=(compound signal-min signal)/(max signal-min signal)*100%, where Maximum signal was substrate only wells and Minimum signal was enzyme and substrate well. IC50 was calculated by fitting % Inhibition values and log of compound concentrations to nonlinear regression (log(inhibitor) vs. response—Variable slope(four parameters)) with GraphPad 9.4.1
For biochemical activity, bracket is denoted as: A<100 nM; 100 nM<B<500 nM; C>500 nM

Where only a bound is given, the exact number is not on record here.

T1 sequence (Q86W56 389-976): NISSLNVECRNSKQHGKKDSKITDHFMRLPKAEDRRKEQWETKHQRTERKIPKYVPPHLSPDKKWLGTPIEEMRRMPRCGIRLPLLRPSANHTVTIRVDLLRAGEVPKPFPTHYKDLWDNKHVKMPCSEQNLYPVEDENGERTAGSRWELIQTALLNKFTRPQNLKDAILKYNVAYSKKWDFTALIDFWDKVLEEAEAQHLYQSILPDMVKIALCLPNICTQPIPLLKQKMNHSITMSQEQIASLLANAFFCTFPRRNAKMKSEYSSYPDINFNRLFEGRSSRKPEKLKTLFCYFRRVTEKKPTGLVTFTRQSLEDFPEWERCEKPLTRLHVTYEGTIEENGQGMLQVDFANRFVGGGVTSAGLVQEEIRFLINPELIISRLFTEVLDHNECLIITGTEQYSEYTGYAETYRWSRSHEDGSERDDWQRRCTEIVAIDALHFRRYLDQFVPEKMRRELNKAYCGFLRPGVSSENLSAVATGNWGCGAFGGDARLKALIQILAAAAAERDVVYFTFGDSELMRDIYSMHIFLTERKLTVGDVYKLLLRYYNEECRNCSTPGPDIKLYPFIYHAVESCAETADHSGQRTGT

In the case of `CC1(NS(=O)(=O)c2cc(N3CCC4(CC3)COC4)n3cnc(-c4nnc(C(F)F)s4)c3c2)CC1` [Example 34, 1-(5-(difluoromethyl)-1,3,4-thiadiazol-2-yl)-N-(1-methylcyclopropyl)-5-(2-oxa-7-azaspiro[3.5]nonan-7-yl)imidazo[1,5-a]pyridine-7-sulfonamide], the values for the IC50 (in the assay with Kuramochi cells; in assay [1]) were less than 1000 nM and less than 100 nM, respectively.
`O=S(=O)(NC1(C(F)F)CC1)c1cc(N2CCC3(CC2)COC3)n2cnc(-c3nnc(C(F)F)s3)c2c1` [Example 35, 1-(5-(difluoromethyl)-1,3,4-thiadiazol-2-yl)-N-(1-(difluoromethyl)cyclopropyl)-5-(2-oxa-7-azaspiro[3.5]nonan-7-yl)imidazo[1,5-a]pyridine-7-sulfonamide]: the figures for the IC50 (in the assay with Kuramochi cells; in assay [1]) were less than 1000 nM and less than 100 nM, respectively.
For `N#CC1(NS(=O)(=O)c2cc(N3CCC4(CC3)COC4)n3cnc(-c4nnc(C(F)F)s4)c3c2)CC1` [Example 36, N-(1-cyanocyclopropyl)-1-(5-(difluoromethyl)-1,3,4-thiadiazol-2-yl)-5-(2-oxa-7-azaspiro[3.5]nonan-7-yl)imidazo[1,5-a]pyridine-7-sulfonamide], in that order: less than 1000 nM and less than 100 nM.
For `O=S(=O)(NC1(C(F)F)CC1)c1cc(N2CCC3(CC2)COC3)c2ncc(-c3nnc(C(F)F)s3)n2c1` [Example 37, 3-(5-(difluoromethyl)-1,3,4-thiadiazol-2-yl)-N-(1-(difluoromethyl)cyclopropyl)-8-(2-oxa-7-azaspiro[3.5]nonan-7-yl)imidazo[1,2-a]pyridine-6-sulfonamide], in that order: less than 1000 nM and less than 100 nM.
The matching figures for `O=S(=O)(NC1(C(F)F)CC1)c1cc(N2CCC3(CC2)COC3)c2cnc(-c3nnc(C(F)F)s3)n2c1` [Example 39, 3-(5-(difluoromethyl)-1,3,4-thiadiazol-2-yl)-N-(1-(difluoromethyl)cyclopropyl)-8-(2-oxa-7-azaspiro[3.5]nonan-7-yl)imidazo[1,5-a]pyridine-6-sulfonamide]: less than 1000 nM and less than 100 nM.
On to `O=S(=O)(NC1(C(F)F)CC1)c1cc(N2CCC3(CC2)COC3)c2nnc(-c3nnc(C(F)F)s3)n2c1` [Example 40, 3-(5-(Difluoromethyl)-1,3,4-thiadiazol-2-yl)-N-(1-(difluoromethyl)cyclopropyl)-8-(2-oxa-7-azaspiro[3.5]nonan-7-yl)-[1,2,4]triazolo[4,3-a]pyridine-6-sulfonamide], for which the IC50 – broadly, the point on the concentration scale where inhibition reaches its midpoint – in the assay on Kuramochi cells was less than 1000 nM; in assay [1], less than 100 nM.
